Test results: PubChem BioAssay (NCI)
“And” between values parts separate entries of the source, which are not always exact repeats. Equal values may be shown once.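 Where inhibition never reached the appropriate level, the endpoint shown equals the highest concentration tested. Otherwise, values were interpolated linearly from a five-concentration, 48-hour dose response in 96-well plates. GI50 is the concentration that inhibits growth by half. TGI: concentration producing complete growth inhibition.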

Experiments:
Experiment in all cases: growth of human tumour cells (NCI), 48 h
HS 578T breast = system: HS 578T breast
IGROV1 ovarian = system: IGROV1 ovarian
NCI-H23 lung = system: NCI-H23 lung
NCI-H460 lung = system: NCI-H460 lung
SK-OV-3 ovarian = system: SK-OV-3 ovarian
SNB-19 CNS = system: SNB-19 CNS
T-47D breast = system: T-47D breast
UACC-62 melanoma = system: UACC-62 melanoma

Row | SMILES | GI50 (HS 578T breast) [µM] | TGI (HS 578T breast) [µM] | GI50 (IGROV1 ovarian) [µM] | TGI (IGROV1 ovarian) | GI50 (NCI-H23 lung) [µM] | TGI (NCI-H23 lung) | GI50 (NCI-H460 lung) [µM] | TGI (NCI-H460 lung) | GI50 (SK-OV-3 ovarian) [µM] | TGI (SK-OV-3 ovarian) | GI50 (SNB-19 CNS) [µM] | TGI (SNB-19 CNS) | GI50 (T-47D breast) [µM] | TGI (T-47D breast) [µM] | GI50 (UACC-62 melanoma) [µM] | TGI (UACC-62 melanoma) [µM]
1 | COc1cc(CNC(=O)CCSc2nc3ccccc3c(=O)n2Cc2cc(OC)c(OC)c(OC)c2)cc(OC)c1OC | 5.24 | > 100 | 13.2 | > 100 µM | 6.87 | > 100 µM | 4.19 | 27.5 µM | 5.34 | 18.6 µM | 6 | > 100 µM | 5.52 | 34 | 2.92 | 20.6
2 | NC(=S)N/N=C\c1nccc2c(C(F)(F)C(F)(F)C(F)(F)F)cccc12 | 0.889 | 22.6 | 0.223 | 1.93 µM | 0.422 | 12.4 µM | 0.0619 | 1.21 µM | 0.0466 | 1.43 µM | 0.196 | 5.21 µM | 0.0369 | 1.51 | 0.171 | 0.511
3 | COc1cc(CC2CC(c3ccc4c(c3)OCO4)OC2=O)cc(OC)c1OC (stereo not given) | – | > 100 | – | – | – | > 100 µM | – | > 100 µM | – | > 100 µM | – | > 100 µM | – | > 100 | – | > 100
4 | Cc1cc(Cl)ccc1NC(=O)NC(C)(C)COC(=O)Nc1cccc(Cl)c1 | 5.65 | 39 | 11.1 | > 100 µM | 3.66 | 28.4 µM | 4.86 | 36.7 µM | 22.5 | 96 µM | 5.57 | > 100 µM | 5.55 | > 100 | 4.73 | > 100
5 | O=[N+]([O-])c1ccc(NC(=S)N/N=C(\c2ccccc2)c2ccccn2)cc1 | – | 9.39 | – | 3.18 µM and 3.43 µM | 1.71 | 3.53 µM and 13.3 µM | 1.47 | 3.36 µM and 11.9 µM | 2.28 | 4.09 µM and 2.95 µM | – | 3.12 µM and 2.97 µM | – | 3.03 | 3.4 | 2.92
6 | Cc1ccc([N+](=O)[O-])cc1NC(=O)C(=O)C1CCC2=C(Sc3ccccc3N2)C1=O (stereo not given) | – | > 100 | – | > 100 µM | – | > 100 µM | – | > 100 µM | – | > 100 µM | – | > 100 µM | – | – | – | > 100
7 | C=C(C)[C@@H]1CC[C@]2(C)[C@H](CC=C3[C@@H]4[C@H](C)[C@@H](C)CC[C@]4(CO)CC[C@]32C)[C@@]1(C)CCCN | 0.994 | 2.23 | 0.885 | 1.67 µM | 1.34 | 4 µM | 0.914 | 1.71 µM | 4.42 | 12 µM | 2.11 | 8.11 µM | 1.51 | 5.15 | 5.82 | 12.6
8 | O=C(Nc1cccc([N+](=O)[O-])c1)c1cc2ccccc2cc1O | 1.24 | 10.4 | 1.3 | > 26.1 µM | 0.72 | 3.65 µM | 1.87 | > 100 µM | 1.84 | 6.07 µM | 2.93 | > 100 µM | 2.47 | 7.88 | 0.685 | –
9 | CN(C)CCNc1c2c(c(NCCN(C)C)c3c(CO)c[nH]c13)C(=O)c1ccccc1C2=O | 3.36 | 13.6 | 2.49 | > 40.7 µM | 2.31 | > 21.9 µM | 1.92 | 9.12 µM | 4.64 | 20.8 µM | 6.09 | 22.3 µM | 22.1 | 48.2 | 7.64 | 21.7
10 | O[C@H](CN1CC1)[C@@H](O)CN1CC1 | 20.4 | 79.2 | 10.7 | 33.3 µM | 3.24 | > 100 µM | 0.496 | 22.9 µM | 4.91 | 29.9 µM | 6.58 | > 100 µM | 7.13 | 66.6 | 3.96 | > 100
11 | CN1N=Nc2c(C(F)(F)F)nn(-c3ccccc3)c2N(C)C1=O | > 100 | > 100 | > 100 | > 100 µM | > 100 | > 100 µM | > 100 | > 100 µM | > 100 | > 100 µM | > 100 | > 100 µM | > 100 | > 100 | > 100 | > 100
12 | CN(C)c1ccc(N=C(C#N)c2nc(N)nc(N3CCN(c4ccccc4)CC3)n2)cc1 | – | – | 14.8 | > 50 µM | > 50 | > 50 µM | 14.7 | > 37 µM | 16.6 | > 35.4 µM | > 50 | > 50 µM | > 50 | > 50 | > 50 | > 50
13 | CC(C)N(Cc1ccccc1)S(=O)(=O)c1n[nH]c(C(C)(C)C)n1 | – | > 100 | – | > 100 µM | – | > 100 µM | – | > 100 µM | – | > 100 µM | – | > 100 µM | – | > 100 | – | > 100
14 | Cc1ccc(S(=O)(=O)c2ccsc2N)cc1 | > 100 | > 100 | > 100 | > 100 µM | > 100 | > 100 µM | > 100 | > 100 µM | > 100 | > 100 µM | > 100 | > 100 µM | > 100 | > 100 | > 100 | > 100
15 | C[C@]12CC[C@H]3[C@@H](CCC4=C[C@@H](OC5OCC(OC6OC(CO)C(O)C(O)C6O)C(O)C5O)CC[C@@]43C=O)[C@@]1(O)CCC2C1=CC(=O)OC1 (stereo not given in full) | – | > 100 | – | 2.66 µM | – | 1.08 µM | – | 0.534 µM | – | 3.75 µM | – | 11.9 µM | – | > 24.8 | – | 4.29
16 | C(#Cc1ccccc1C#Cc1ccccn1)c1ccccn1 | – | – | – | – | 19 | 46.4 µM | 23.1 | 58.8 µM | 16.5 | 37.9 µM | 18 | 39.3 µM | 19.4 | 46.3 | 14.7 | 28.6
17 | N=C1C(c2nc(-c3ccc(Br)cc3)cs2)=C(O)CN1CC1CCCO1 (stereo not given) | – | – | – | – | > 100 | > 100 µM | – | – | > 100 | > 100 µM | > 100 | > 100 µM | > 100 | > 100 | > 100 | > 100
18 | C[C@H]1CCC/C=C/[C@@H]2C[C@H](O)C[C@H]2[C@H](O)[C@@H](SC2OC(CO)C(O)C(O)C2O)CC(=O)O1 (stereo not given in full) | – | – | > 100 | > 100 µM | 47.9 | > 100 µM | – | – | > 100 | > 100 µM | > 100 | > 100 µM | > 100 | > 100 | 33.6 | > 100
19 | Cn1c(O)c(N=NC(N)=S)c2ccccc21 | 23.4 | > 100 | – | – | > 100 | > 100 µM | 33.9 | > 100 µM | 66.8 | > 100 µM | > 100 | > 100 µM | 43.9 | > 100 | > 100 | > 100
20 | COc1cc(/C=C/c2cc(/C=C/c3ccc(O)c(OC)c3)[nH]c(=O)n2)ccc1O | 1.8 | 6.75 | 4.41 | > 100 µM | – | – | 3.12 | 18.5 µM | 2.33 | 4.89 µM | 3.38 | > 100 µM | 6.5 | 36.9 | 3.39 | 43.2
21 | CC(=O)Nc1cc2cc(NS(=O)(=O)c3cc(C(F)(F)F)cc(C(F)(F)F)c3)ccc2oc1=O | – | > 100 | – | > 100 µM | – | > 100 µM | – | > 100 µM | – | – | – | > 100 µM | – | > 100 | – | > 100
22 | C[C@@H](c1ccccc1)N(CC#N)C1CCC[C@H]1O (stereo not given in full) | – | – | – | > 100 µM | – | > 100 µM | – | > 100 µM | – | > 100 µM | – | > 100 µM | – | – | – | > 100
23 | C=C1C(=O)O[C@H]2[C@H]1CC/C(COC(=O)/C=C/c1c[nH]c3ccccc13)=C\CC[C@@]1(C)O[C@@H]21 | 0.353 | 2.92 | 0.225 | 0.484 µM | 1.25 | 4.32 µM | 1.01 | 2.66 µM | 1.88 | 3.59 µM | – | – | 0.205 | 0.626 | 0.177 | 0.379
24 | C=Cc1cnc([N+](=O)[O-])n1C | – | 99.9 | – | – | – | > 100 µM | – | > 100 µM | – | > 100 µM | – | > 100 µM | – | > 100 | – | –
25 | CC(=O)NS(=O)(=O)c1ccc(-n2nc(-c3ccccc3)cc2C2=CC(=O)C=CC2=O)cc1 | 22.3 | > 100 | > 100 | > 100 µM | > 100 | > 100 µM | > 100 | > 100 µM | – | – | > 100 | > 100 µM | > 100 | > 100 | > 100 | > 100
26 | COc1ccc(/C=C/c2cnc3ccccc3n2)cc1OC | – | > 100 | – | > 100 µM | – | > 100 µM | – | > 100 µM | – | > 100 µM | – | – | – | > 100 | – | > 100
